Assay results published in paper PMC8318231, “Rate-of-Kill (RoK) assays to triage large compound sets for Chagas disease drug discovery: Application to GSK Chagas Box” (PLoS Neglected Tropical Diseases, 2021).

Experiments:
[1] = system: T. cruzi intracellular amastigotes in H9c2 cells; assay: Rate-of-Kill (RoK) high-content imaging assay, amastigotes per cell (AM/CELL) and curve descriptors; type: cell-based, Trypanosoma cruzi; set-up: key to ME_24h / ME_48h / ME_72h: % reduction in parasite burden (cidal response); t50pct_MCC50 / t50pct_Cmax: unit not given here; details: for ME_24h: 24h; for ME_48h: 48h; for ME_72h: 72h; for t50%_Cmax / tlag_Cmax / t50pct_Cmax: at Cmax; for ME_24h (%): maximum effect at 24 h; for ME_24h (%) / ME_48h (%) / ME_72h (%): RoK assay; for ME_48h (%): maximum effect at 48 h; for ME_72h (%): maximum effect at 72 h; for ME 24h (maximum effect at 24 hours, intracellular amastigotes): maximum percentage of parasite burden reduction reached by any concentration
How it was run: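 H9c2 cardiomyocytes infected with T. cruzi trypomastigotes (MOI 8, 18 h), then compounds tested at 5 μM single shot or 11-point 1/3 dilution from 50 μM. DRAQ5-stained nuclei imaged over a time course. Amastigotes per cell normalised to infected cells at 4 h (0%) and non-infected cells (100%).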

[2] = system: T. cruzi Tulahuen trypomastigotes; assay: T. cruzi trypomastigote assay (Cell Titer-Glo viability, ATP luminescence); type: cell-based, Trypanosoma cruzi; details: for Trypomastigotes pIC50 48 hours: 48 hours incubation; for Trypomastigotes pIC50 48 hours / Trypomastigotes pIC50 72 hours: pIC50 = -log10 IC50 in molar units; for Trypomastigotes pIC50 72 hours: 72 hours incubation; for 72 pIC50 (trypomastigotes, raw data of Fig 1D): 72 hours, plotted values, censored values given without sign; for 48 pIC50 / 72 pIC50: trypomastigote assay; for 48 pIC50: 48 h; for 72 pIC50: 72 h
How it was run: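 Tulahuen trypomastigotes from infected LLC-MK2 culture supernatants (days 5–8) plated at 5 × 10^4 per well in DMEM/2% FBS with compound at 5 μM single-shot final or in dose response. Viability by CellTiter-Glo ATP luminescence after 10 min at room temperature, normalised to no-cell (100%) and DMSO (0%) controls.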

[3] = system: TcCYP51; details: formerly reported; cited from earlier work

Row | Compound | ME_24h ([1]; figure 5) | ME_48h ([1]; figure 5) | ME_72h ([1]; figure 5) | MCC50 ([1]; RoK curve descriptor) | MCCE ([1]; RoK curve descriptor) | tlag_Cmax [1] | t50pct_Cmax ([1]; figure 5) | tlag_Cmax ([1]; figure 5) | t50%_MCC50 ([1]; at MCC50) | tlag_MCC50 ([1]; at MCC50) | t50pct_MCC50 ([1]; at MCC50, figure 5) | tlag_MCC50 ([1]; at MCC50, figure 5) | MCCE ([1]; figure 5) | MCC50 ([1]; figure 5, in µM) | ME_24h (%) [1] | ME_48h (%) [1] | ME_72h (%) [1] | ME 24h (maximum effect at 24 hours, intracellular amastigotes) [1] | Trypomastigotes pIC50 48 hours [2] | Trypomastigotes pIC50 72 hours [2] | other results
1 | COc1cccc(CCNC(=O)C(c2cn[nH]c2)N2CCN(c3ccc(Cl)cc3)CC2)c1 (centres unmarked) [TCMDC-143434] | 51.5158 | 102.276 | 117.751 | 5.6 µM | 0.07 µM | 4.0 h | 24 | 4 | 72.0 h | 24.0 h | 72 | 24 | 0.06859 | 5.556 | 51.5% | 102.3% | 117.8% | 51.5158% | 4.4 | 4.5 | AM/CELL NORM ([1]; Time 4, sheet figure 4 A): 2.576; AM/CELL NORM ([1]; Time 24, sheet figure 4 A): 51.5158; AM/CELL NORM ([1]; Time 48, sheet figure 4 A): 102.276; AM/CELL NORM ([1]; Time 72, sheet figure 4 A): 117.751; t50%_Cmax [1]: 24.0 h; CYP51 pIC50 [3]: 7.2
2 | COc1ccc(NS(=O)(=O)c2cc(NC(=O)c3ccc([N+](=O)[O-])s3)ccc2OC)cc1 [TCMDC-143163] | 71.4836 | 99.4358 | 93.6846 | 0.2 µM | 0.2 µM | 4.0 h | 24 | 4 | 48.0 h | 24.0 h | 48 | 24 | 0.2058 | 0.2058 | 71.5% | 99.4% | 93.7% | 71.4836% | 6.9 | 6.6 | AM/CELL NORM ([1]; Time 4, sheet figure 4 A): 10.6053; AM/CELL NORM ([1]; Time 24, sheet figure 4 A): 69.9764; AM/CELL NORM ([1]; Time 48, sheet figure 4 A): 96.1683; AM/CELL NORM ([1]; Time 72, sheet figure 4 A): 85.8906; t50%_Cmax [1]: 24.0 h; activity in trypomastigotes assay (in words) ([2]; 48 and 72 hours): potent activity; CYP51 pIC50 [3]: 6
3 | Cc1ccc(C)c(OC2CCN(C(=O)C(C)n3ccnc3)CC2)c1 (centres unmarked) [TCMDC-143481] | -18.0648 | -41.8218 | 55.4241 | 5.6 µM | 0.6 µM | 48.0 h | 72 | 48 | 72.0 h | 48.0 h | 72 | 48 | 0.6173 | 5.556 | -18.1% | -41.8% | 55.4% | -18.0648% | < 4.3 | < 4.3 | AM/CELL NORM ([1]; Time 4, sheet figure 4 A): -1.4032; AM/CELL NORM ([1]; Time 24, sheet figure 4 A): -18.0648; AM/CELL NORM ([1]; Time 48, sheet figure 4 A): -41.8218; AM/CELL NORM ([1]; Time 72, sheet figure 4 A): 1.753; 72 pIC50 (trypomastigotes, raw data of Fig 1D) [2]: < 4.3; 48 pIC50 ([2]; figure 1A): < 4.3; 72 pIC50 ([2]; figure 1A): < 4.3; 72 pIC50 ([2]; figure 1B): < 4.3; CYP51 pIC50 [3]: 7
4 | CN(C)Cc1ccc(-c2ccc(S(=O)(=O)NCC3CCCO3)c(F)c2)cc1.O=C(O)C(F)(F)F (centres unmarked) [TCMDC-143085] | -52.4333 | 20.7837 | 66.9859 | 1.9 µM | 0.6 µM | 24.0 h | 72 | 24 | 72.0 h | 24.0 h | 72 | 24 | 0.6173 | 1.852 | -52.4% | 20.8% | 67.0% | -52.4333% | < 4.3 | < 4.3 | AM/CELL NORM ([1]; Time 4, sheet figure 4 A): -2.755; AM/CELL NORM ([1]; Time 24, sheet figure 4 A): -52.4333; AM/CELL NORM ([1]; Time 48, sheet figure 4 A): 10.0788; AM/CELL NORM ([1]; Time 72, sheet figure 4 A): 59.3639; t50%_Cmax [1]: 72.0 h; 72 pIC50 (trypomastigotes, raw data of Fig 1D) [2]: < 4.3; 48 pIC50 ([2]; figure 1A): < 4.2; 72 pIC50 ([2]; figure 1A): < 4.3; 72 pIC50 ([2]; figure 1B): < 4.3; CYP51 pIC50 [3]: 4.4
5 | CC(=O)Nc1ccc(-c2noc(CC3CCCN(Cc4cccc(F)c4C)C3)n2)cc1 (centres unmarked) [TCMDC-143362] | 28.3063 | 60.2253 | 68.1396 | 5.6 µM | 1.9 µM | 4.0 h | 48 | 4 | 72.0 h | 24.0 h | 72 | 24 | 1.852 | 5.556 | 28.3% | 60.2% | 68.1% | 73.518% | 5.2 | 5.3 | AM/CELL NORM ([1]; Time 4, figure 4 A): -3.298; AM/CELL NORM ([1]; Time 24, figure 4 A): 28.3063; AM/CELL NORM ([1]; Time 48, figure 4 A): 60.2253; AM/CELL NORM ([1]; Time 72, figure 4 A): 68.1396; t50%_Cmax [1]: 48.0 h; CYP51 pIC50 [3]: < 4
6 | COc1ccc(C2CC(c3ccccc3Cl)=NN2C(=O)CNC(=O)C2CCC2)cc1 (centres unmarked) [TCMDC-143130] | 26.5695 | 65.3197 | 85.0018 | 5.6 µM | 1.9 µM | 4.0 h | 48 | 4 | 72.0 h | 4.0 h | 72 | 4 | 1.852 | 5.556 | 26.6% | 65.3% | 85.0% | 26.5695% | 4.6 | 4.7 | AM/CELL NORM ([1]; Time 4, sheet figure 4 A): 21.8567; AM/CELL NORM ([1]; Time 24, sheet figure 4 A): 26.5695; AM/CELL NORM ([1]; Time 48, sheet figure 4 A): 65.3197; AM/CELL NORM ([1]; Time 72, sheet figure 4 A): 85.0018; t50%_Cmax [1]: 48.0 h; CYP51 pIC50 [3]: 4.3
